Measured values reported in the NIST ThermoML archive (doi:10.1021/je500784s).
“And” between values parts separate entries of the source, which are not always exact repeats. Equal values may be shown once.

Tests used:
[1] = for vapor or sublimation pressure: Transpiration method; for Normal melting temperature: DTA
[2] = Molar enthalpy of transition or fusion; details: Crystal; DSC

Cc1cccc(Br)c1 [1-bromo-3-methylbenzene]
[1], Liquid
Details | vapor or sublimation pressure
274.2 K | 0.02006 kPa
276.2 K | 0.0234 kPa
278.2 K | 0.02748 kPa
278.3 K | 0.02776 kPa
279.2 K | 0.0289 kPa
280.3 K | 0.03259 kPa
281.3 K | 0.0351 kPa
282.2 K | 0.03686 kPa
282.5 K | 0.03833 kPa
284.2 K | 0.0421 kPa and 0.04171 kPa
287.2 K | 0.05299 kPa
287.3 K | 0.0526 kPa
290.2 K | 0.06611 kPa
290.4 K | 0.06761 kPa
293.2 K | 0.08432 kPa
293.6 K | 0.08569 kPa
296.2 K | 0.09718 kPa
296.7 K | 0.1039 kPa
299.2 K | 0.1199 kPa
299.8 K | 0.1279 kPa
302.2 K | 0.1478 kPa
302.8 K | 0.1548 kPa
305.2 K | 0.18 kPa
308.2 K | 0.2084 kPa and 0.2115 kPa and 0.2068 kPa

Cc1ccc(Br)cc1 [4-bromotoluene]
[1]
Details | vapor or sublimation pressure [kPa]
274.5 K, Crystal | 0.01409
277.2 K, Crystal | 0.01853
278.3 K, Crystal | 0.02013
280.2 K, Crystal | 0.02439
282.2 K, Crystal | 0.02935
283.2 K, Crystal | 0.0328
285.5 K, Crystal | 0.04128
286.2 K, Crystal | 0.04379
288.3 K, Crystal | 0.05178
289.6 K, Crystal | 0.05809
291.2 K, Crystal | 0.06948
294.3 K, Crystal | 0.08957
297.3 K, Crystal | 0.1161
298.2 K, Crystal | 0.1223
299.2 K, Crystal | 0.1357
300.8 K, Crystal | 0.1543
301.9 K, Liquid | 0.1746
304.2 K, Liquid | 0.1989
304.9 K, Liquid | 0.2137
307.2 K, Liquid | 0.2422
310.3 K, Liquid | 0.2964
313.2 K, Liquid | 0.3477
314.4 K, Liquid | 0.3671
316.3 K, Liquid | 0.4044
317.5 K, Liquid | 0.4335
319.3 K, Liquid | 0.4827
320.6 K, Liquid | 0.507
322.4 K, Liquid | 0.5742
325.3 K, Liquid | 0.6696
328.2 K, Liquid | 0.7835
331.3 K, Liquid | 0.8879
332.3 K, Liquid | 0.9409
335.3 K, Liquid | 1.1

Details | Normal melting temperature [°C]
[1], Crystal | 28.2

Details | Molar enthalpy of transition or fusion [kcal/mol]
[2] | 3.56

Cc1cccc(C)c1Br [2-bromo-1,3-dimethylbenzene]
[1], Liquid
Details | vapor or sublimation pressure
274.2 K | 0.00695 kPa
276.2 K | 0.0084 kPa
278.3 K | 0.01013 kPa
281.2 K | 0.01282 kPa
284.2 K | 0.0161 kPa
287.2 K | 0.02071 kPa
290.2 K | 0.02551 kPa
293.3 K | 0.0317 kPa and 0.03214 kPa
293.4 K | 0.03244 kPa
296.3 K | 0.03998 kPa
299.3 K | 0.04922 kPa
302.2 K | 0.06313 kPa
305.3 K | 0.07815 kPa

Cc1ccc(I)cc1 [4-iodotoluene]
[1]
Details | vapor or sublimation pressure
279.5 K, Crystal | 0.00537 kPa
283.3 K, Crystal | 0.008 kPa
286.3 K, Crystal | 0.01101 kPa
289.4 K, Crystal | 0.01456 kPa
293.2 K, Crystal | 0.0205 kPa and 0.02183 kPa
298.1 K, Crystal | 0.0335 kPa
303 K, Crystal | 0.0526 kPa
308 K, Liquid | 0.08115 kPa
311 K, Liquid | 0.09922 kPa
315 K, Liquid | 0.1261 kPa
319.1 K, Liquid | 0.1599 kPa
323.2 K, Liquid | 0.2025 kPa
328.1 K, Liquid | 0.2776 kPa
332.9 K, Liquid | 0.3665 kPa

Details | Normal melting temperature [°C]
[1], Crystal | 34.4

Details | Molar enthalpy of transition or fusion [kcal/mol]
[2] | 3.59

Cc1ccc(I)c(C)c1 [1-iodo-2,4-dimethylbenzene]
[1], Liquid
Details | vapor or sublimation pressure
293.5 K | 0.00972 kPa
298.4 K | 0.01434 kPa
301.4 K | 0.01827 kPa
303.4 K | 0.02175 kPa
306.3 K | 0.02654 kPa
308.3 K | 0.03017 kPa
311.3 K | 0.03876 kPa
313.3 K | 0.04322 kPa
316.4 K | 0.05407 kPa
318.6 K | 0.06284 kPa
321.4 K | 0.07438 kPa
323.4 K | 0.08333 kPa
326.4 K | 0.1058 kPa and 0.1032 kPa
328.5 K | 0.1158 kPa

Cc1cccc(C)c1I [1-iodo-2,6-dimethylbenzene]
[1], Liquid
Details | vapor or sublimation pressure [kPa]
284.5 K | 0.005
288.4 K | 0.00709
291.6 K | 0.00925
296.5 K | 0.014
298.4 K | 0.01572
299.5 K | 0.01696
301.5 K | 0.01972
303.3 K | 0.02303
306.4 K | 0.02867
308.3 K | 0.03267
311.4 K | 0.04222
313.6 K | 0.04835
316.4 K | 0.05818
318.4 K | 0.06657
321.2 K | 0.08028
323.4 K | 0.09228
326.3 K | 0.1123
328.5 K | 0.1277
331.3 K | 0.1526
333.4 K | 0.1721

Ic1ccccc1 [iodobenzene]
[1], Liquid
Details | vapor or sublimation pressure [kPa]
283.8 K | 0.05269
286.8 K | 0.06386
289.9 K | 0.08034
293 K | 0.09644
294 K | 0.1029
296.8 K | 0.1261
299.6 K | 0.1487
302.6 K | 0.1853
305.7 K | 0.2226
308.7 K | 0.2722
311.8 K | 0.3239
314.6 K | 0.3944

Cc1cccc(I)c1 [1-iodo-3-methylbenzene]
[1], Liquid
Details | vapor or sublimation pressure
275.7 K | 0.00715 kPa
279.3 K | 0.00936 kPa
281.9 K | 0.01131 kPa
283.5 K | 0.01241 kPa
286.4 K | 0.0157 kPa
289.3 K | 0.01945 kPa and 0.01996 kPa
293.1 K | 0.02757 kPa
293.2 K | 0.02683 kPa
298.1 K | 0.0403 kPa
298.2 K | 0.03887 kPa
302.9 K | 0.05424 kPa and 0.05679 kPa
308 K | 0.07665 kPa and 0.07718 kPa
313.1 K | 0.1065 kPa

Cc1ccccc1Br [2-bromotoluene]
[1], Liquid
Details | vapor or sublimation pressure
281.2 K | 0.04946 kPa
284.2 K | 0.06067 kPa
285.2 K | 0.06568 kPa
287.2 K | 0.07592 kPa and 0.07526 kPa
290.2 K | 0.09238 kPa
293.2 K | 0.1131 kPa
296.2 K | 0.1381 kPa
299.2 K | 0.1684 kPa
302.2 K | 0.2053 kPa
305.2 K | 0.25 kPa
308.2 K | 0.3008 kPa [middle of 4 runs]
313.1 K | 0.3903 kPa [middle of 6 runs]

Brc1ccccc1 [bromobenzene]
[1], Liquid
Details | vapor or sublimation pressure [kPa]
276.4 K | 0.1345
278.3 K | 0.1534
282.2 K | 0.1957
283.1 K | 0.2092
285.4 K | 0.2487
286.2 K | 0.2532
288.3 K | 0.2954
289.3 K | 0.3211
291.4 K | 0.3549
292.4 K | 0.3794
293.2 K | 0.4046
294.4 K | 0.4413
295.5 K | 0.4596
297.4 K | 0.5225
300.4 K | 0.6407
303.4 K | 0.7604

Cc1ccccc1I [1-iodo-2-methylbenzene]
[1], Liquid
Details | vapor or sublimation pressure [kPa]
283.2 K | 0.01623
288.2 K | 0.02387
293.2 K | 0.0355
301.2 K | 0.06212
304.2 K | 0.07615
307.4 K | 0.0943
310.3 K | 0.1131
313.1 K | 0.1354
316.2 K | 0.1655
319.3 K | 0.1983
322.1 K | 0.2325
325.1 K | 0.2843
